“Also recorded” adds a separate entry of the source.
B1: peptide SVAPALALSPA (peptide)
peptide: SVAPALALSPA
notes: Synthetic peptide of the donor-type (Ser) allele

Experiments:
GVHD = experiment: Treatment of acute GVHD in the patient after DLI; format: in vivo, human; details: 1 mg prednisolone/kg body weight and cyclosporin A together
T2 cells = experiment: 51Cr release assay on peptide loaded T2 cells with CTL; format: cell-based; details: for recognition (lysis) by RDR2 of peptide loaded T2 cells: 51Cr release assay, FIG. 2b
Protocol: Cytotoxicity of CTL clones in standard ^51Cr release assays was performed as described previously (Faber et al. 1992, J Exp Med 176: 1283-1289). Target cells were labelled with 100 μCi Na2^51CrO4 (Amersham Biosciences, Freiburg, Germany) for 1 hour at 37° C., washed, and diluted to […] to 5*10^4 cells per ml to obtain 10^3 to 5*10^3 target cells per well. CTL's were added in various effector:target (E:T) ratios and incubated for 4 hours. Supernatants were harvested and transferred to solid scintillator containing microplates (Perkin Elmer, Boston Mass., USA) and counted on a Topcount counter (Perkin Elmer). HPLC purified natural peptides or diluted synthetic peptides were tested for reactivity by loading ^51Cr labelled T2 or donor EBV LCL cells for 1-2 hours at 37° C. and 5% CO2 prior to addition of CTL.

[1] = target: T1, recombinant HLA A*0201 molecules (Homo sapiens, UniProt P04439, D140Y/D185E/D98H/E176V/E277Q/G131W/G231S/I119V/I121R/I166T/I218V/L300P/L318F/N151K/N90K/P208A/P217A/Q86G/Q94H/R138H/R169H/T345S); experiment: Binding of peptides to recombinant HLA A*0201 molecules (monomer folding)
T1 construct: biotin (biotinylated); made in house
Excerpt: Recombinant biotinilated HLA A*0201 monomers were folded in the presence of β2-microbglobulin with peptide […] or […]. Streptavidin-PE and streptavidin-APC tetramers were produced with refolded complexes as described previously (Altman et al. 1996 Science 274: 94-96). Tetrameric complexes were used to stain thawed patient samples taken at the indicated time points post SCT and DLI. Cells were counterstained by CD8 APC (Caltag, Burlingame, Calif., USA) and analysed by flowcytometry. Tetramer positive events were single well FACS sorted, expanded and tested for cytotoxicity.

[2] = target: recombinant HLA A*0201 molecules (human, biotinylated (site not stated)); experiment: refolding of recombinant HLA A*0201 with beta2-microglobulin and peptide

| Molecule | recognition (lysis) by RDR2 of peptide loaded T2 cells (T2 cells) | binding to recombinant HLA A*0201 molecules [1] | binding result [2] | further results |
| --- | --- | --- | --- | --- |
| C[C@]12C=CC(=O)C=C1CC[C@@H]1[C@@H]2[C@@H](O)C[C@@]2(C)[C@H]1CC[C@]2(O)C(=O)CO [prednisolone] |  |  |  | treatment of GVHD (GVHD): treated successfully |
| SVAPALALFPA [LB-ADIR-1F] | lysed; also recorded: recognized | able to bind |  |  |
| SVAPALALSPA [SVAPALAL-S-PA, donor-type allelic counterpart peptide with serine at position 9, reference compound] | not | able to bind |  |  |
| SVAPAXAXFPA |  |  |  | peptide level at which lysis by RDR2 was reconstituted (T2 cells; 51Cr labelled T2 cells loaded with synthetic peptide, levels as low as, data not shown): ≤ 10 pM |
| SVAPALALFPA (Synthetic 11-mer) [LB-ADIR-1F peptide SVAPALALFPA] |  |  | binds |  |
| B1 |  |  | binds |  |

— patent publication US20090220473A1, “ADIR RELATED POLYMORPHISMS AND APPLICATIONS THEREOF” (Leiden University Medical Center, priority 2006, published 2009)
